Measured values published in patent publication US8962058B2, “High-potency sweetener composition with antioxidant and compositions sweetened therewith” (The Coca-Cola Company, priority 2005, dated 2015).

Columns and labels:
[1] = Sweetness level as sucrose equivalent
[2] = system: panel of experts in the sensory evaluation of foods and beverages; experiment: Sensory evaluation of sweetness linger by expert panel; assay type: in vivo; set-up: key: 0=no sweetness linger; 1=very slight sweetness linger; 2=slight sweetness linger; 3=moderate sweetness linger; 4=moderately high sweetness linger; 5=high sweetness linger; conditions: for Sweetness linger rating: scale 0-5; for Sweetness Linger rating as defined for the protocol's controls: scale anchors: sucrose, 500 ppm REBA control sample
Experimental: In a particular embodiment, a panel of assessors is used to measure the reduction of sweetness linger. Briefly described, a panel of assessors (generally 8 to 12 individuals) is trained to evaluate sweetness perception and measure sweetness at several time points from when the sample is initially taken into the mouth until 3 minutes after it has been expectorated. […] A decrease in score for a time point measured after the sample has cleared the mouth indicates there has been a reduction in sweetness perception.
The panel of assessors may be trained using procedures well known to those of ordinary skill in the art. In a particular embodiment, the panel of assessors may be trained using the Spectrum™ Descriptive Analysis Method (Meilgaard et al, Sensory Evaluation Techniques, 3rd edition, Chapter 11). Desirably, the focus of training should be the recognition of and the measure of the basic tastes; specifically, sweet. In order to ensure accuracy and reproducibility of results, each assessor should repeat the measure of the reduction of sweetness linger about three to about five times per sample, taking at least a five minute break between each repetition and/or sample and rinsing well with water to clear the mouth.
Generally, the method of measuring sweetness comprises taking a 10 mL sample into the mouth, holding the sample in the mouth for 5 seconds and gently swirling the sample in the mouth, rating the sweetness intensity perceived at 5 seconds, expectorating the sample (without swallowing following expectorating the sample), rinsing with one mouthful of water (e.g., vigorously moving water in mouth as if with mouth wash) and expectorating the rinse water, rating the sweetness intensity perceived immediately upon expectorating the rinse water, waiting 45 seconds and, while waiting those 45 seconds, identifying the time of maximum perceived sweetness intensity and rating the sweetness intensity at that time (moving the mouth normally and swallowing as needed), rating the sweetness intensity after another 10 seconds, rating the sweetness intensity after another 60 seconds (cumulative 120 seconds after rinse), and rating the sweetness intensity after still another 60 seconds (cumulative 180 seconds after rinse). Between samples take a 5 minute break, rinsing well with water to clear the mouth.
Sensory evaluation of the samples prepared in Example Set G was carried out under the following protocol, similar to that described hereinabove. In this test protocol, none of the samples were swallowed. […] Immediately upon sensing maximal sweetness, the sample was expectorated, the mouth was rinsed with water and the rate of sweetness decay (“Sweetness Linger”) was measured, where attention was focused on the sweetness 3-4 min after the water rinse. […]

Row | Molecule | sucrose equivalence ([1]; 180 ppm rebaudioside A in 1:1 diluted commercial beverage) [% sucrose] | sucrose equivalence ([1]; 400 ppm REBA in citric acid/potassium citrate composition) [g sucrose] | Sweetness linger rating ([2]; Example Set G: citric acid/potassium citrate composition equivalent to diet lemon-lime beverage (citrate buffer), sweetness 3-4 min after water rinse) | Sweetness linger rating ([2]; Example Set H: carbon-treated water, phosphoric acid (75%) to pH 2.4-2.5) | Sweetness Linger rating as defined for the protocol's controls [2]
1 | rebaudioside A | 5 | 8 | 5 | 5 | 5
2 | OC[C@H]1O[C@@](CO)(O[C@H]2O[C@H](CO)[C@@H](O)[C@H](O)[C@H]2O)[C@@H](O)[C@@H]1O [sugar, sucrose] | – | – | – | – | 0
